Results on 15 compounds are retold here after US20220041606A1, “POSITIVE ALLOSTERIC MODULATORS OF THE MUSCARINIC ACETYLCHOLINE RECEPTOR M1” (Vanderbilt University, priority 2020, published 2022).

Experiment [1] concerns the target T1, human mAChR M1 (Homo sapiens, UniProt P11229).
T1 construct: host or cells: CHO-K1 cells (ATCC), stably transfected using Lipofectamine2000
T1 sequence (P11229 1-460): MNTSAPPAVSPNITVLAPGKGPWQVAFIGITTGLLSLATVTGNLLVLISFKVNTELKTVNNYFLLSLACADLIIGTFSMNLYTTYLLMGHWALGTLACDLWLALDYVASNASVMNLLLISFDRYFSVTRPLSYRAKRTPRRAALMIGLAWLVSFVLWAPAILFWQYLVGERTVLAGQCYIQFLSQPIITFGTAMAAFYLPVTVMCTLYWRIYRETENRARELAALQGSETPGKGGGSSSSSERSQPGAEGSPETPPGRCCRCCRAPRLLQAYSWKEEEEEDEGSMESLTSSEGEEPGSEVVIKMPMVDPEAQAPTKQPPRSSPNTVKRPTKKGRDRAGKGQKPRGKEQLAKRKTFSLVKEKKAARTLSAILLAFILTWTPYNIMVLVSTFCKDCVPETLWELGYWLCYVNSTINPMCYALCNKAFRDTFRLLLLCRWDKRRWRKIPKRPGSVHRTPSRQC
Description: mAChR M1 cell-based functional assay (calcium mobilization), PAM activity: increase in the EC20 acetylcholine response. To be noted: CHO-K1 cells expressing hM1; potentiation of EC20 acetylcholine response. In outline: (§1)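 Fluorescence ratio calcium read-out (Fluo-4 AM, FDSS 6000) in human M1-expressing CHO-K1 cells. Agonist activity taken as concentration-dependent rise after compound addition; potentiation as enhancement of a subsequent EC20 acetylcholine challenge. Curves from 11-point threefold dilutions fitted by four-parameter logistic; Emax expressed versus acetylcholine maximum.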

The target in experiment [2] is T1, human mAChR M1. As to the kind of experiment: mAChR M1 cell-based functional assay (calcium mobilization), agonist activity upon compound addition. The note with it: CHO-K1 cells expressing hM1; for EC50: compound alone, before acetylcholine addition; for Emax: relative to the maximum for acetylcholine. A digest of the protocol:
as §1

A value given as a limit tells only on which side of the number the result lay.

In the case of `O=C(N[C@H]1CCCCC[C@@H]1O)c1cn(Cc2ccc(-n3cccn3)cc2)c(=O)c2nccnc12` [Compound A62, 6-(4-(1H-pyrazol-1-yl)benzyl)-N-((1S,2S)-2-hydroxycycloheptyl)-5-oxo-5,6-dihydropyrido[3,4-b]pyrazine-8-carboxamide], at human mAChR M1 [1], the EC50 was ≥ 10 µM and the Emax is 53%. On human mAChR M1 [2], the EC50 was > 10 µM and the Emax was < 5%.

Regarding `Cn1ccc(-c2ccc(Cn3cc(C(=O)N[C@H]4CCOC[C@@H]4O)c4nccnc4c3=O)c(F)c2)n1` [Compound A63, 6-(2-fluoro-4-(1-methyl-1H-pyrazol-3-yl)benzyl)-N-((3R,4S)-3-hydroxytetrahydro-2H-pyran-4-yl)-5-oxo-5,6-dihydropyrido[3,4-b]pyrazine-8-carboxamide], at human mAChR M1 [1], the EC50 is ≥ 10 µM and the Emax is 55%. Also, at human mAChR M1 [2], the half-maximal effective concentration (EC50) is > 10 µM and the Emax was 7%.

With `Cn1ccc(-c2ccc(Cn3cc(C(=O)N[C@H]4CCC[C@@H]4O)c4nccnc4c3=O)c(F)c2)n1` [Compound A64, 6-(2-fluoro-4-(1-methyl-1H-pyrazol-3-yl)benzyl)-N-((1S,2S)-2-hydroxycyclopentyl)-5-oxo-5,6-dihydropyrido[3,4-b]pyrazine-8-carboxamide], at human mAChR M1 [1], the 50% effective concentration (EC50) is ≥ 10 µM and the Emax came to 41%. At human mAChR M1 [2], the EC50 was > 10 µM and the Emax stood at 41%.

With `Cn1ccc(-c2ccc(Cn3cc(C(=O)N[C@H]4CCCCC[C@@H]4O)c4nccnc4c3=O)c(F)c2)n1` [Compound A65, 6-(2-fluoro-4-(1-methyl-1H-pyrazol-3-yl)benzyl)-N-((1S,2S)-2-hydroxycycloheptyl)-5-oxo-5,6-dihydropyrido[3,4-b]pyrazine-8-carboxamide], the EC50 on human mAChR M1 [1] was 5.25 µM; on human mAChR M1 [2] it was > 10 µM. Also, the Emax at human mAChR M1 [1] is 63%; at human mAChR M1 [2], 6%.

Take `Cn1cc2c(-c3cc(F)c(Cn4cc(C(=O)N[C@H]5CCOC[C@@H]5O)c5nccnc5c4=O)c(F)c3)cccc2n1` [Compound A66, 6-(2,6-difluoro-4-(2-methyl-2H-indazol-4-yl)benzyl)-N-((3R,4S)-3-hydroxytetrahydro-2H-pyran-4-yl)-5-oxo-5,6-dihydropyrido[3,4-b]pyrazine-8-carboxamide]: on human mAChR M1 [1], the EC50 was 0.28 µM and the Emax worked out at 72%. Moreover, on human mAChR M1 [2], the EC50 came out at 5 µM and the Emax is 46%.

Take `Cn1cc2c(-c3cc(F)c(Cn4cc(C(=O)N[C@H]5CCCCC[C@@H]5O)c5nccnc5c4=O)c(F)c3)cccc2n1` [Compound A67, 6-(2,6-difluoro-4-(2-methyl-2H-indazol-4-yl)benzyl)-N-((1S,2S)-2-hydroxycycloheptyl)-5-oxo-5,6-dihydropyrido[3,4-b]pyrazine-8-carboxamide]: on human mAChR M1 [1], the EC50 is 0.62 µM and the Emax amounted to 77%. Also, on human mAChR M1 [2], the EC50 turned out to be 5 µM and the Emax came to 46%.

Take `Cn1cc2c(-c3cc(F)c(Cn4cc(C(=O)N[C@H]5CCC[C@@H]5O)c5nccnc5c4=O)c(F)c3)cccc2n1` [Compound A68, 6-(2,6-difluoro-4-(2-methyl-2H-indazol-4-yl)benzyl)-N-((1S,2S)-2-hydroxycyclopentyl)-5-oxo-5,6-dihydropyrido[3,4-b]pyrazine-8-carboxamide]: at human mAChR M1 [1], the EC50 stood at 1.2 µM and the Emax was determined as 74%. Further, the Emax at human mAChR M1 [2] is 8%.

Regarding `Cn1cc2c(-c3cc(F)c(Cn4cc(C(=O)N[C@H]5CC[C@@H]5O)c5nccnc5c4=O)c(F)c3)cccc2n1` [Compound A69, 6-(2,6-difluoro-4-(2-methyl-2H-indazol-4-yl)benzyl)-N-((1S,2S)-2-hydroxycyclobutyl)-5-oxo-5,6-dihydropyrido[3,4-b]pyrazine-8-carboxamide], on human mAChR M1 [1], the EC50 came out at 3.89 µM and the Emax worked out at 57%. Further, at human mAChR M1 [2], the EC50 is > 10 µM and the Emax was < 5%.

In the case of `Cn1cc2c(-c3cc(F)c(Cn4cc(C(=O)NC5CCOCC5)c5nccnc5c4=O)c(F)c3)cccc2n1` [Compound A70, 6-(2,6-difluoro-4-(2-methyl-2H-indazol-4-yl)benzyl)-5-oxo-N-(tetrahydro-2H-pyran-4-yl)-5,6-dihydropyrido[3,4-b]pyrazine-8-carboxamide], at human mAChR M1 [1], the EC50 was 5.5 µM and the Emax worked out at 45%. Further, on human mAChR M1 [2], the EC50 was > 10 µM and the Emax is < 5%.

For the compound `Cn1cc2c(-c3cc(F)c(Cn4cc(C(=O)NC5CC6(COC6)C5)c5nccnc5c4=O)c(F)c3)cccc2n1` [Compound A71, 6-(2,6-difluoro-4-(2-methyl-2H-indazol-4-yl)benzyl)-5-oxo-N-(2-oxaspiro[3.3]heptan-6-yl)-5,6-dihydropyrido[3,4-b]pyrazine-8-carboxamide], at human mAChR M1 [1], the EC50 is 3.1 µM and the Emax stood at 57%. On human mAChR M1 [2], the EC50 is > 10 µM and the Emax was < 5%.

For `Cn1cc2c(-c3cc(F)c(Cn4cc(C(=O)NC5(CO)CCOC5)c5nccnc5c4=O)c(F)c3)cccc2n1` (centres unmarked) [Compound A72, 6-(2,6-difluoro-4-(2-methyl-2H-indazol-4-yl)benzyl)-N-(3-(hydroxymethyl)tetrahydrofuran-3-yl)-5-oxo-5,6-dihydropyrido[3,4-b]pyrazine-8-carboxamide], on human mAChR M1 [1], the EC50 is ≥ 10 µM and the maximum response (Emax) came out at 32%. At human mAChR M1 [2], the EC50 was > 10 µM and the Emax was < 5%.

For the compound `Cn1cc2c(-c3cc(F)c(Cn4cc(C(=O)NCC(C)(C)O)c5nccnc5c4=O)c(F)c3)cccc2n1` [Compound A73, 6-(2,6-difluoro-4-(2-methyl-2H-indazol-4-yl)benzyl)-N-(2-hydroxy-2-methylpropyl)-5-oxo-5,6-dihydropyrido[3,4-b]pyrazine-8-carboxamide], on human mAChR M1 [1], the EC50 is 4.04 µM and the Emax is 67%. Besides, at human mAChR M1 [2], the EC50 was > 10 µM and the Emax is < 5%.

Consider `Cn1cc2c(-c3cc(F)c(Cn4cc(C(=O)NCC(O)C(F)(F)F)c5nccnc5c4=O)c(F)c3)cccc2n1` (centres unmarked) [Compound A74, 6-(2,6-difluoro-4-(2-methyl-2H-indazol-4-yl)benzyl)-5-oxo-N-(3,3,3-trifluoro-2-hydroxypropyl)-5,6-dihydropyrido[3,4-b]pyrazine-8-carboxamide], for which, at human mAChR M1 [1], the EC50 is 3.81 µM and the Emax was 53%. Besides, on human mAChR M1 [2], the EC50 was > 10 µM and the Emax was < 5%.

On to `CC(C)[C@@H](CO)NC(=O)c1cn(Cc2c(F)cc(-c3cccc4nn(C)cc34)cc2F)c(=O)c2nccnc12` [Compound A75, (S)-6-(2,6-difluoro-4-(2-methyl-2H-indazol-4-yl)benzyl)-N-(1-hydroxy-3-methylbutan-2-yl)-5-oxo-5,6-dihydropyrido[3,4-b]pyrazine-8-carboxamide], for which, on human mAChR M1 [1], the EC50 was 3.54 µM and the Emax turned out to be 56%. In addition, at human mAChR M1 [2], the EC50 is > 10 µM and the Emax is < 5%.

Turning to `CC[C@H](C)[C@@H](CO)NC(=O)c1cn(Cc2c(F)cc(-c3cccc4nn(C)cc34)cc2F)c(=O)c2nccnc12` [Compound A76, 6-(2,6-difluoro-4-(2-methyl-2H-indazol-4-yl)benzyl)-N-((2S,3S)-1-hydroxy-3-methylpentan-2-yl)-5-oxo-5,6-dihydropyrido[3,4-b]pyrazine-8-carboxamide], the results for the EC50 at human mAChR M1 [1] and at human mAChR M1 [2] were 4.33 µM and > 10 µM, respectively. Also, the Emax at human mAChR M1 [1] is 53%; on human mAChR M1 [2], < 5%.
